We go through one molecule from ChEMBL document CHEMBL3856233, “Identification of (R)-(2-Chloro-3-(trifluoromethyl)phenyl)(1-(5-fluoropyridin-2-yl)-4-methyl-6,7-dihydro-1H-imidazo[4,5-c]pyridin-5(4H)-yl)methanone (JNJ 54166060), a Small Molecule Antagonist of the P2X7 receptor” (J Med Chem, 2016).

Series [1] is described as follows: Drug metabolism in human liver microsomes assessed as oxidation of imdazopyridine core at 10 uM after 60 mins by LC/MS/MS analysis. The series is classed as ADME. The conditions noted are these: 1 h.
In another series the test system is Rattus norvegicus. The experiment in a line: Ex vivo receptor occupancy at P2X7 receptor in po dosed rat brain hippocampal section assessed as displacement of [3H]-(S)-7-(2-chloro-3-(trifluoromethyl)benzyl)-6-methyl-3-(pyrazin-2-yl)-6,7-dihydro-[1,2,4]triazolo[4,3-a]pyrazin-8(5H)-one after 30 mins. It is filed as functional.
Series [2] in a line: Drug metabolism in human liver microsomes assessed as oxidation of fluoropyridine substituent at 10 uM after 60 mins by LC/MS/MS analysis. To be noted: 1 h. It is filed as ADME. A general note: Liver microsomes are vesicles of endoplasmic reticulum, rich in cytochrome P450 enzymes.
The nature of series [3]: Permeability from apical to basolateral side in human Caco2 cells at 10 uM after 60 mins by LC/MS/MS analysis. It is filed as ADME, cell-based. To be noted: Caco-2, read-out: permeability.
A short description of series [4]: Cmax in Sprague-Dawley rat at 5 mg/kg, po after 0.033 to 24 hrs by LC/MS/MS analysis. The series is classed as ADME, organism-based. Also noted: dose 5 mg/kg, route oral. To be noted: in vivo.
A short description of series [5]: Half life in Beagle dog at 1 mg/kg, iv by LC/MS/MS analysis. The series is classed as ADME, organism-based, Canis lupus familiaris. The conditions noted are these: in vivo.
The target in series [6] is T1, CYP3A4 (Homo sapiens, UniProt P08684). Description: Inhibition of CYP3A4 in human liver microsomes using midazolam as substrate assessed as reduction in 1-OH-midazolam formation at 0.625 uM by LC/MS/MS analysis. It is filed as ADME. The conditions noted are these: probe midazolam.
The nature of series [7]: Volume of distribution at steady state in Beagle dog at 1 mg/kg, iv after 0.033 to 24 hrs by LC/MS/MS analysis. It is filed as ADME, organism-based, Canis lupus familiaris. The conditions noted are these: in vivo, read-out: Vdss.
The nature of series [8]: Protein binding in mouse plasma at 1 uM after 6 hrs by LC/MS/MS analysis. The series is classed as ADME, cell-free. To be noted: read-out: PPB (converted).
The nature of series [9]: Tmax in cynomolgus monkey at 5 mg/kg, po after 0.033 to 24 hrs by LC/MS/MS analysis. It is filed as ADME, organism-based, Macaca fascicularis. To be noted: in vivo.
Series [10] can be described thus: Protein binding in human plasma at 1 uM after 6 hrs by LC/MS/MS based equilibrium dialysis method. It is filed as ADME, cell-free. To be noted: read-out: PPB (converted). For orientation: In equilibrium dialysis free small molecules cross a membrane that holds back macromolecules.
A short description of series [11]: Oral bioavailability in Beagle dog at 5 mg/kg after 0.033 to 24 hrs by LC/MS/MS analysis. It is filed as ADME, organism-based, Canis lupus familiaris. To be noted: in vivo.
In series [12] the target is T1, CYP3A4. The experiment in a line: Inhibition of CYP3A4 in human liver microsomes using midazolam as substrate assessed as reduction in 1-OH-midazolam formation at 2.5 uM by LC/MS/MS analysis. To be noted: probe midazolam. The series is classed as ADME.
A short description of series [13]: Volume of distribution at steady state in Sprague-Dawley rat at 1 mg/kg, iv after 0.033 to 24 hrs by LC/MS/MS analysis. The series is classed as ADME, organism-based. To be noted: in vivo, read-out: Vdss.
Series [14] is described as follows: Solubility of compound in phosphate buffer at pH 2 at room temperature after 3 days.

T1 sequence (P08684 whole entry): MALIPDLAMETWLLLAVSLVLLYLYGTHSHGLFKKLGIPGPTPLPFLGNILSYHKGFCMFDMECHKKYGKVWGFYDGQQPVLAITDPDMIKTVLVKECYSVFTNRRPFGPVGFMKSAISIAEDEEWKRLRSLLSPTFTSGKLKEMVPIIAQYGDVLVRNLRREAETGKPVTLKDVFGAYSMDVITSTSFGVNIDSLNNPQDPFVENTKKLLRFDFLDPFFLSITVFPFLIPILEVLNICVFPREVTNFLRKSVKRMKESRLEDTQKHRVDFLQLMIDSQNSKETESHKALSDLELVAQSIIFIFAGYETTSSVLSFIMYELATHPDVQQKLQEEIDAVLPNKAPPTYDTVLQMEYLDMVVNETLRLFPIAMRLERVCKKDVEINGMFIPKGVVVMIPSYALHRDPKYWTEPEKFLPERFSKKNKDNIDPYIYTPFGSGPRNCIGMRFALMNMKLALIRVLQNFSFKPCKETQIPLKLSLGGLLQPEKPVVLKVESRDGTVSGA

The term ED50 denotes the dose at which the effect has come halfway, by size or by number of responders. Usually inhibition stands for the percentage by which the read-out fell short of the control. As usually defined, the Cmax is the maximum level reached in the sampled fluid or tissue. One may read the half-life as how long it takes for the measured level to halve. One may read the Tmax as the time from dosing to the highest level. As a reminder, the bioavailability is the share of a dose that reaches the circulation, judged against a reference dose that is usually intravenous. By solubility is commonly meant how much of the substance goes into solution per volume. Regarding `C[C@@H]1c2ncn(-c3ccc(F)cn3)c2CCN1C(=O)c1cccc(C(F)(F)F)c1Cl`, the Drug metabolism entry was “Metabolite_Detected” in [1] and “Metabolite_Notdetected” in series [2]. In addition, the ED50 with Rattus norvegicus was determined as 2.3 mg/kg. Besides, in the series with Rattus norvegicus, the inhibition result was “Dose-dependent effect”. Moreover, the Papp A→B at 1 h, 10 µM in series [3] amounted to 65 ×10⁻⁶ cm/s. The Cmax in series [4] was 375 ng/mL. The molecule further showed a half-life in series [5] of 11.9 h. Also, the inhibition at 0.625 µM on CYP3A4 [6] is 29%. The results for the Vd in series [7] and in series [13] were 3.6 L/kg and 3.8 L/kg, respectively. Also, the figures for the fraction unbound at 6 h, 1 µM in series [8] and in [10] were 0.045 and 0.055, respectively. Further, the Tmax in series [9] came to 2.3 h. Moreover, in series [11], the bioavailability was > 100%. For the same molecule, the inhibition at 2.5 µM at CYP3A4 [12] stood at 52%. Besides, in [14], the solubility at 72 h is > 400 µM.
